Experimental data published in PubChem BioAssay AID2060615 (Molecular Pharmacology Branch, DTP, NCI, 2025).
“And” between values parts separate entries of the source, which are not always exact repeats. Identical values can stand only once.

Test system: 496974-208-R-J2-PDC complex spheroids, growth % test/control
Assay: Anticancer human tumor 496974-208-R-J2-PDC patient-derived pancreatic carcinoma cell line growth inhibition [CLK]
Conditions: for viability, T/C: stronger effect = lower value
Outline: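 Multi-cell-type spheroids combined patient-derived tumor cells with HUVEC endothelial cells and human mesenchymal stem cells. Paired agents were dosed in half-log steps down from about clinical Cmax, or from 10 microM where Cmax was unknown.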

[1] = curve of first compound, second compound 0.0316 µM
[2] = curve of first compound, second compound 0.1 µM
[3] = curve of first compound, second compound 0.316 µM
[4] = curve of first compound, second compound 1 µM
[5] = curve of first compound, second compound 3.16 µM
[6] = curve of first compound, second compound 10 µM
[7] = second compound 0.0316 µM, first compound 0.0316 µM
[8] = second compound 0.0316 µM, first compound 0.1 µM
[9] = second compound 0.0316 µM, first compound 0.316 µM
[10] = second compound 0.0316 µM, first compound 1 µM
[11] = second compound 0.0316 µM, first compound 3.16 µM
[12] = second compound 0.0316 µM, first compound 10 µM
[13] = second compound 0.1 µM, first compound 0.0316 µM
[14] = second compound 0.1 µM, first compound 0.1 µM
[15] = second compound 0.1 µM, first compound 0.316 µM
[16] = second compound 0.1 µM, first compound 1 µM
[17] = second compound 0.1 µM, first compound 3.16 µM
[18] = second compound 0.1 µM, first compound 10 µM
[19] = second compound 0.316 µM, first compound 0.0316 µM
[20] = second compound 0.316 µM, first compound 0.1 µM
[21] = second compound 0.316 µM, first compound 0.316 µM
[22] = second compound 0.316 µM, first compound 1 µM
[23] = second compound 0.316 µM, first compound 3.16 µM
[24] = second compound 0.316 µM, first compound 10 µM
[25] = second compound 1 µM, first compound 0.0316 µM
[26] = second compound 1 µM, first compound 0.1 µM
[27] = second compound 1 µM, first compound 0.316 µM
[28] = second compound 1 µM, first compound 1 µM
[29] = second compound 1 µM, first compound 3.16 µM
[30] = second compound 1 µM, first compound 10 µM
[31] = second compound 3.16 µM, first compound 0.0316 µM
[32] = second compound 3.16 µM, first compound 0.1 µM
[33] = second compound 3.16 µM, first compound 0.316 µM
[34] = second compound 3.16 µM, first compound 1 µM
[35] = second compound 3.16 µM, first compound 3.16 µM
[36] = second compound 3.16 µM, first compound 10 µM
[37] = second compound 10 µM, first compound 0.0316 µM
[38] = second compound 10 µM, first compound 0.1 µM
[39] = second compound 10 µM, first compound 0.316 µM
[40] = second compound 10 µM, first compound 1 µM
[41] = second compound 10 µM, first compound 3.16 µM
[42] = second compound 10 µM, first compound 10 µM
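Note: spheroids exposed to the drugs for 7 days before readout.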
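Throughout, for viability, T/C: 100% = DMSO vehicle control wells.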

In the case of C=C(F)C(=O)N1CCN(c2nc(OCC3CCCN3C)nc3c2CCN(c2cccc4cccc(Cl)c24)C3)CC1CC#N (stereo unspecified) + CN1CCN(c2cc(C(=O)Nc3cc4cc(-c5cnn(C)c5)ccc4cn3)ccn2)CC1, the IC50 [1] is reported as 5320 nM, the IC50 [2] is reported as 4440 nM and the IC50 [3] is reported as < 31.6 nM. The IC50 [4] was < 31.6 nM, the IC50 [5] was < 31.6 nM and the IC50 [6] was < 31.6 nM. It also gave a viability, T/C [7] of 107%, a viability, T/C [8] of 106% and a viability, T/C [9] of 89.9%. It also gave a viability, T/C [10] of 117%, a viability, T/C [11] of 88.8% and a viability, T/C [12] of 3.02%. For the same compound, the viability, T/C [13] was 86.1%, the viability, T/C [14] was 88.8% and the viability, T/C [15] was 75.8%. The viability, T/C [16] was 86.6%, the viability, T/C [17] was 70.8% and the viability, T/C [18] was 0.72%. The viability, T/C [19] was 7.07%, the viability, T/C [20] was 8.92% and the viability, T/C [21] was 8.59%. It also gave a viability, T/C [22] of 7.85%, a viability, T/C [23] of 6.67% and a viability, T/C [24] of 1.1%. For the same compound, the viability, T/C [25] was 0.58%, the viability, T/C [26] was 0.48% and the viability, T/C [27] was 1.51%. For the same compound, the viability, T/C [28] was 0.33%, the viability, T/C [29] was 1.52% and the viability, T/C [30] was 2.06%. For the same compound, the viability, T/C [31] was 0.33%, the viability, T/C [32] was 0.52% and the viability, T/C [33] was 1.57%. The viability, T/C [34] was 0.45%, the viability, T/C [35] was 0.2% and the viability, T/C [36] was 1.09%. The viability, T/C [37] was 0.35%, the viability, T/C [38] was 0.35% and the viability, T/C [39] was 0.31%. It also gave a viability, T/C [40] of 0.32%, a viability, T/C [41] of 0.74% and a viability, T/C [42] of 0.22%.
In the case of Nc1ccn(C2OC(CO)C(O)C2(F)F)c(=O)n1 (stereo unspecified) + CNC(=O)c1ccc(Nc2nc(OC3CCCC3)c3c(-c4ccc5nc(C)oc5c4)c[nH]c3n2)c(OC)c1, the IC50 [1] is reported as > 10000 nM, the IC50 [2] is reported as > 10000 nM and the IC50 [3] is reported as > 10000 nM. For the same compound, the IC50 [4] was 2760 nM, the IC50 [5] was 279 nM and the IC50 [6] was 60.6 nM. For the same compound, the viability, T/C [7] was 94.5%, the viability, T/C [8] was 80% and the viability, T/C [9] was 67%. The viability, T/C [10] was 65.4%, the viability, T/C [11] was 68.5% and the viability, T/C [12] was 58.5%. For the same compound, the viability, T/C [13] was 75.3%, the viability, T/C [14] was 80.7% and the viability, T/C [15] was 64.6%. For the same compound, the viability, T/C [16] was 62.9%, the viability, T/C [17] was 60.7% and the viability, T/C [18] was 54%. It also gave a viability, T/C [19] of 63.3%, a viability, T/C [20] of 74.2% and a viability, T/C [21] of 69.9%. The viability, T/C [22] was 54.8%, the viability, T/C [23] was 59.6% and the viability, T/C [24] was 65.2%. For the same compound, the viability, T/C [25] was 66.4%, the viability, T/C [26] was 62.5% and the viability, T/C [27] was 66.6%. It also gave a viability, T/C [28] of 53.5%, a viability, T/C [29] of 44.4% and a viability, T/C [30] of 54.7%. For the same compound, the viability, T/C [31] was 63.1%, the viability, T/C [32] was 59.8% and the viability, T/C [33] was 49.2%. It also gave a viability, T/C [34] of 41%, a viability, T/C [35] of 42.1% and a viability, T/C [36] of 43.7%. For the same compound, the viability, T/C [37] was 52.8%, the viability, T/C [38] was 49% and the viability, T/C [39] was 44.4%. It also gave a viability, T/C [40] of 39.6%, a viability, T/C [41] of 40.6% and a viability, T/C [42] of 43.1%.
With NC(=O)C(=Cn1cnc(-c2cc(C(F)(F)F)cc(C(F)(F)F)c2)n1)c1cncnc1 the viability, T/C (compound 0.00949 µM) was 97.8% and 78.4%, the viability, T/C (compound 0.03 µM) was 71.3% and 68.7% and the viability, T/C (compound 0.0949 µM) was 57.4% and 59.5%. For the same compound, the viability, T/C (compound 0.3 µM) was 29.5% and 32%, the viability, T/C (compound 0.949 µM) was 16% and 23.8% and the viability, T/C (compound 3 µM) was 11.6% and 13.4%. The IC50 (curve of compound) was 106 nM and 135 nM.
